Assay [1] deals with T1, IRAK4 (Homo sapiens (Human), UniProt Q9NWZ3). Kind of assay: IRAK4 Biochemical HTRF Kinase Assay. The note with it: read-out: IRAK4 HTRF biochemical: IC50. The protocol: IRAK4 Biochemical HTRF Kinase Assay
The binding capacities of certain bifunctional compounds of Formula (I) were determined using the CisBio HTRF KinEASE STK S1 Kit (#62ST1PEB, contains 5× Kinase buffer, 1× Detection Buffer, anti-phospho-serine/threonine-cryptate, Streptavidin-XL665, and STK-S1), which measures the phosphorylation of a biotinylated peptide substrate by IRAK4, according to the manufacturer's protocol. […] 2 μl of a reaction solution containing 5 μM STK-S1, 10 mM ATP, and 10 mM MgCl2 were added to each well to a final volume of 10 μl. Assay controls include wells containing kinase with no compound (DMSO only) and wells containing no kinase and no compound (DMSO only). The reactions were allowed to proceed at ambient temperature for 90 minutes. […] The plates were incubated for 60 minutes at ambient temperature and then read on an Envision Multilabel Reader (PerkinElmer). […] For IC50 determination, the compounds were tested at sixteen concentrations in duplicate and curve-fitting was performed by non-linear regression analysis using GraphPad Priam.
Target sequence in this assay (Q9NWZ3 whole entry, species assumed): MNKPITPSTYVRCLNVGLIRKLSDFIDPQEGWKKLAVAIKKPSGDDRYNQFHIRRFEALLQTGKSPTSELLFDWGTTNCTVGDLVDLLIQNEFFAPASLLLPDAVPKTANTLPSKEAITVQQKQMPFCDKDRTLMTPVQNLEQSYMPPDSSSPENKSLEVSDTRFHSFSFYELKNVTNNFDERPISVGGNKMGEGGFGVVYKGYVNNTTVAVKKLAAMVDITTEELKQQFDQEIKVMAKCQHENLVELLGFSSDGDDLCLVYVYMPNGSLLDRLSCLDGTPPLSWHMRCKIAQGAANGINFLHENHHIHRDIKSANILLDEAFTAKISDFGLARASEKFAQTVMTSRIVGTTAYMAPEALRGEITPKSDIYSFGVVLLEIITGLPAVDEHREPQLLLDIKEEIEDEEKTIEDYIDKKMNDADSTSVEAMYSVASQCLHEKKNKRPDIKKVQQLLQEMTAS

Assay [2] addresses T1, IRAK4. The assay is described as follows: IRAK4 Degradation HiBiT Assay. The note with it: HiBiT-tagged Jurkat cells, 4 hrs; for Dmax: Jurkat; for DC50: read-out: Cellular IRAK4 HiBiT: DC50. Background: HiBiT is a short tag that completes a luciferase, so light tracks the accessible tagged protein.
Target sequence in this assay (Q9NWZ3 whole entry): as the sequence (Q9NWZ3 whole entry, species assumed) above
Where [3] appears, read: read-out: Cellular IRAK4 HiBiT: Dmax, Table 4.
The mark [4] stands for this setting: read-out: Cellular IRAK4 HiBiT: Dmax, Table 5, multiple runs.

Where two headings read alike, the source gives them in different places.

Broadly, the IC50 is the point on the concentration scale where inhibition reaches its midpoint. The term Dmax denotes the greatest extent of degradation seen. In general, DC50 refers to the concentration at which degradation of the target reaches its halfway point.

With `CC(C)Nc1cc(-c2ccc3cc(C#N)cnn23)ncc1-c1nnc(N2CCN(C3CCN(Cc4ccc5c(c4)C(=O)N(C4CCC(=O)NC4=O)C5=O)CC3)CC2)s1` (stereo not drawn) [Example 18, 7-(5-(5-(4-(1-((2-(2,6-dioxopiperidin-3-yl)-1,3-dioxoisoindolin-5-yl)methyl)piperidin-4-yl)piperazin-1-yl)-1,3,4-thiadiazol-2-yl)-4-(isopropylamino)pyridin-2-yl)pyrrolo[1,2-b]pyridazine-3-carbonitrile], the IC50 turned out to be 1.9 nM at IRAK4 [1] (Table 4) and 1.9 nM at IRAK4 [1] (Table 5, multiple runs). The Dmax turned out to be 88% at IRAK4 [2] (setting [3]) and 87% on IRAK4 [2] (setting [4]). Besides, the half-maximal degradation concentration (DC50) is 123 nM on IRAK4 [2] (Table 4) and 113 nM on IRAK4 [2] (Table 5, multiple runs).

Regarding `CC(C)Nc1cc(-c2ccc3cc(C#N)cnn23)ncc1-c1nnc(N2CCN(C[C@H]3CCN(c4ccc5c(c4)C(=O)N(C4CCC(=O)NC4=O)C5=O)C3)CC2)s1` (stereo partly drawn) [Example 19, 77-(5-(5-(4-(((3R)-1-(2-(2,6-dioxopiperidin-3-yl)-1,3-dioxoisoindolin-5-yl)pyrrolidin-3-yl)methyl)piperazin-1-yl)-1,3,4-thiadiazol-2-yl)-4-(isopropylamino)pyridin-2-yl)pyrrolo[1,2-b]pyridazine-3-carbonitrile], the 50% inhibitory concentration (IC50) worked out at 2.2 nM on IRAK4 [1] (Table 4) and 2.2 nM on IRAK4 [1] (Table 5, multiple runs). The Dmax amounted to 79% on IRAK4 [2] (setting [3]) and 67% at IRAK4 [2] (setting [4]). In addition, the DC50 on IRAK4 [2] (Table 4) worked out at 90.1 nM; on IRAK4 [2] (Table 5, multiple runs) it was 90.6 nM.

Regarding `CC(C)Nc1cc(-c2ccc3cc(C#N)cnn23)ncc1-c1nnc(N2CCN(Cc3ccc4c(c3)C(=O)N(C3CCC(=O)NC3=O)C4=O)CC2)s1` (stereo not drawn) [Example 20, 7-(5-(5-(4-((2-(2,6-dioxopiperidin-3-yl)-1,3-dioxoisoindolin-5-yl)methyl)piperazin-1-yl)-1,3,4-thiadiazol-2-yl)-4-(isopropylamino)pyridin-2-yl)pyrrolo[1,2-b]pyridazine-3-carbonitrile], the IC50 at IRAK4 [1] (Table 4) came to 2 nM; at IRAK4 [1] (Table 5, multiple runs), 2 nM. Also, the Dmax on IRAK4 [2] (setting [3]) and on IRAK4 [2] (setting [4]) was 29% each time. Besides, the DC50 on IRAK4 [2] (Table 4) was determined as 654 nM; at IRAK4 [2] (Table 5, multiple runs) it was 660 nM.

Turning to `CC(C)Nc1cc(-c2ccc3cc(C#N)cnn23)ncc1-c1nnc(N2CCN(C(=O)C3CCN(CC4CCN(c5ccc6c(=O)n(C7CCC(=O)NC7=O)ccc6c5)CC4)CC3)CC2)s1` (stereo not drawn) [Example 21, 7-(5-(5-(4-(1-((1-(2-(2,6-dioxopiperidin-3-yl)-1-oxo-1,2-dihydroisoquinolin-6-yl)piperidin-4-yl)methyl)piperidine-4-carbonyl)piperazin-1-yl)-1,3,4-thiadiazol-2-yl)-4-(isopropylamino)pyridin-2-yl)pyrrolo[1,2-b]pyridazine-3-carbonitrile], the concentration for half-maximal inhibition (IC50) was 0.5 nM at IRAK4 [1] (Table 4) and 0.5 nM on IRAK4 [1] (Table 5, multiple runs). Besides, the Dmax at IRAK4 [2] (setting [3]) turned out to be 103%; on IRAK4 [2] (setting [4]), 101%. Moreover, the DC50 at IRAK4 [2] (Table 4) amounted to 251 nM; on IRAK4 [2] (Table 5, multiple runs) it was 251 nM.

With `CC(C)Nc1cc(-c2ccc3cc(C#N)cnn23)ncc1-c1nnc(N2CCC(NCC3CCN(c4ccc5c(c4)C(=O)N(C4CCC(=O)NC4=O)C5=O)CC3)CC2)s1` (stereo not drawn) [Example 22, 7-[5-(5-{4-[({1-[2-(2,6-dioxopiperidin-3-yl)-1,3-dioxo-2,3-dihydro-1H-isoindol-5-yl]piperidin-4-yl}methyl)amino]piperidin-1-yl}-1,3,4-thiadiazol-2-yl)-4-[(propan-2-yl)amino]pyridin-2-yl]pyrrolo[1,2-b]pyridazine-3-carbonitrile], the IC50 was 0.8 nM at IRAK4 [1] (Table 4) and 0.8 nM at IRAK4 [1] (Table 5, multiple runs). Moreover, the Dmax turned out to be 96% at IRAK4 [2] (setting [3]) and 99% at IRAK4 [2] (setting [4]). The DC50 on IRAK4 [2] (Table 4) is 232 nM; at IRAK4 [2] (Table 5, multiple runs), 231 nM.

Take `CC(C)Nc1cc(-c2ccc3cc(C#N)cnn23)ncc1-c1nnc(N2CCN(C(=O)C3CCN(c4ccc5c(c4)C(=O)N(C4CCC(=O)NC4=O)C5=O)CC3)CC2)s1` (stereo not drawn) [Example 23, 7-{5-[5-(4-{1-[2-(2,6-dioxopiperidin-3-yl)-1,3-dioxo-2,3-dihydro-1H-isoindol-5-yl]piperidine-4-carbonyl}piperazin-1-yl)-1,3,4-thiadiazol-2-yl]-4-[(propan-2-yl)amino]pyridin-2-yl}pyrrolo[1,2-b]pyridazine-3-carbonitrile]: the IC50 amounted to 1.5 nM on IRAK4 [1] (Table 4) and 1.5 nM at IRAK4 [1] (Table 5, multiple runs). Also, the Dmax on IRAK4 [2] (setting [3]) turned out to be 97%; on IRAK4 [2] (setting [4]), 108%. Also, the DC50 at IRAK4 [2] (Table 4) is 184 nM; at IRAK4 [2] (Table 5, multiple runs), 57 nM.

`CC(C)Nc1cc(-c2ccc3cc(C#N)cnn23)ncc1-c1nnc(N2CCC(NC(=O)C3CCN(c4ccc5c(c4)C(=O)N(C4CCC(=O)NC4=O)C5=O)CC3)CC2)s1` (stereo not drawn) [Example 25, N-(1-(5-(6-(3-cyanopyrrolo[1,2-b]pyridazin-7-yl)-4-(isopropylamino)pyridin-3-yl)-1,3,4-thiadiazol-2-yl)piperidin-4-yl)-1-(2-(2,6-dioxopiperidin-3-yl)-1,3-dioxoisoindolin-5-yl)piperidine-4-carboxamide]: the IC50 on IRAK4 [1] (Table 4) came out at 7.8 nM; at IRAK4 [1] (Table 5, multiple runs) it was 7.8 nM. Besides, the results for the Dmax at IRAK4 [2] (setting [3]) and on IRAK4 [2] (setting [4]) were 69% and 77%, respectively. Further, the DC50 at IRAK4 [2] (Table 4) was 188 nM; at IRAK4 [2] (Table 5, multiple runs), 160 nM.

Consider `CC(C)Nc1cc(-c2ccc3cc(C#N)cnn23)ncc1-c1nnc(N2CCN(CCCCc3ccc4c(c3)CN(C3CCC(=O)NC3=O)C4=O)CC2)s1` (stereo not drawn) [Example 26, 7-(5-(5-(4-(4-(2-(2,6-dioxopiperidin-3-yl)-1-oxoisoindolin-5-yl)butyl)piperazin-1-yl)-1,3,4-thiadiazol-2-yl)-4-(isopropylamino)pyridin-2-yl)pyrrolo[1,2-b]pyridazine-3-carbonitrile], for which the IC50 on IRAK4 [1] (Table 4) is 0.9 nM; on IRAK4 [1] (Table 5, multiple runs), 0.9 nM. Besides, the Dmax on IRAK4 [2] (setting [3]) and at IRAK4 [2] (setting [4]) was 87% each time. For the same molecule, the DC50 was 94.2 nM at IRAK4 [2] (Table 4) and 94.1 nM at IRAK4 [2] (Table 5, multiple runs).

For `CC(C)Nc1cc(-c2ccc3cc(C#N)cnn23)ncc1-c1nnc(N2CCN(CCCc3ccc4c(c3)CN(C3CCC(=O)NC3=O)C4=O)CC2)s1` (stereo not drawn) [Example 27, 7-(5-(5-(4-(3-(2-(2,6-dioxopiperidin-3-yl)-1-oxoisoindolin-5-yl)propyl)piperazin-1-yl)-1,3,4-thiadiazol-2-yl)-4-(isopropylamino)pyridin-2-yl)pyrrolo[1,2-b]pyridazine-3-carbonitrile], the IC50 worked out at 0.3 nM on IRAK4 [1] (Table 4) and 1.2 nM on IRAK4 [1] (Table 5, multiple runs). Besides, the Dmax on IRAK4 [2] (setting [3]) and at IRAK4 [2] (setting [4]) was 57% in each case. Moreover, the DC50 at IRAK4 [2] (Table 4) was determined as 70.6 nM; at IRAK4 [2] (Table 5, multiple runs), 70.7 nM.

As to `CC(C)Nc1cc(-c2ccc3cc(C#N)cnn23)ncc1-c1nnc(N2CCN(CCCCc3cccc4c3CN(C3CCC(=O)NC3=O)C4=O)CC2)s1` (stereo not drawn) [Example 28, 7-(5-(5-(4-(4-(2-(2,6-dioxopiperidin-3-yl)-1-oxoisoindolin-4-yl)butyl)piperazin-1-yl)-1,3,4-thiadiazol-2-yl)-4-(isopropylamino)pyridin-2-yl)pyrrolo[1,2-b]pyridazine-3-carbonitrile], the half-inhibitory concentration (IC50) turned out to be 0.4 nM at IRAK4 [1] (Table 4) and 0.5 nM on IRAK4 [1] (Table 5, multiple runs). The Dmax at IRAK4 [2] (setting [3]) and at IRAK4 [2] (setting [4]) was 70% throughout. The half-maximal degradation concentration (DC50) came to 53 nM at IRAK4 [2] (Table 4) and 53.1 nM on IRAK4 [2] (Table 5, multiple runs).

As for `CC(C)Nc1cc(-c2ccc3cc(C#N)cnn23)ncc1-c1nnc(N2CCN(CCCc3cccc4c3CN(C3CCC(=O)NC3=O)C4=O)CC2)s1` (stereo not drawn) [Example 29, 7-(5-(5-(4-(3-(2-(2,6-dioxopiperidin-3-yl)-1-oxoisoindolin-4-yl)propyl)piperazin-1-yl)-1,3,4-thiadiazol-2-yl)-4-(isopropylamino)pyridin-2-yl)pyrrolo[1,2-b]pyridazine-3-carbonitrile], the IC50 was 0.8 nM at IRAK4 [1] (Table 4) and 1.1 nM at IRAK4 [1] (Table 5, multiple runs). Further, the Dmax on IRAK4 [2] (setting [3]) and at IRAK4 [2] (setting [4]) was 90% each time. The DC50 at IRAK4 [2] (Table 4) turned out to be 135 nM; on IRAK4 [2] (Table 5, multiple runs) it was 136 nM.

Turning to `CC(C)Nc1cc(-c2ccc3cc(C#N)cnn23)ncc1-c1nnc(N2CCC(NC(=O)C3CCN(Cc4ccc5c(c4)C(=O)N(C4CCC(=O)NC4=O)C5=O)CC3)CC2)s1` (stereo not drawn) [Example 30, N-(1-(5-(6-(3-cyanopyrrolo[1,2-b]pyridazin-7-yl)-4-(isopropylamino)pyridin-3-yl)-1,3,4-thiadiazol-2-yl)piperidin-4-yl)-1-((2-(2,6-dioxopiperidin-3-yl)-1,3-dioxoisoindolin-5-yl)methyl)piperidine-4-carboxamide], the IC50 was determined as 0.9 nM at IRAK4 [1] (Table 4) and 1.1 nM on IRAK4 [1] (Table 5, multiple runs). For the same molecule, the Dmax at IRAK4 [2] (setting [3]) and at IRAK4 [2] (setting [4]) was 95% each time. In addition, the DC50 on IRAK4 [2] (Table 4) turned out to be 73.4 nM; at IRAK4 [2] (Table 5, multiple runs), 73.5 nM.

The record behind these values is patent US12528814B2, “Bifunctional degraders of interleukin-1 receptor-associated kinases and therapeutic use thereof” (NURIX THERAPEUTICS, INC., priority 2020, dated 2026).
